Measurements taken from publication PMC5618421, “Anti-Inflammatory Effects of Curvularin-Type Metabolites from a Marine-Derived Fungal Strain Penicillium sp. SF-5859 in Lipopolysaccharide-Induced RAW264.7 Macrophages” (Marine Drugs, 2017).

Tests used:
[1] = tested on: RAW264.7 macrophages; assay: Cell viability (MTT) cytotoxic assay; type: cell-based; details: RAW264.7 macrophages, MTT
Method: RAW264.7 macrophages were maintained at a density of 5 × 10^5 cells/mL in RPMI1640 medium supplemented with 10% heat-inactivated FBS, penicillin G (100 units/mL), streptomycin ([…]), and L-glutamine (2 mM), and were incubated at 37 °C in a humidified atmosphere containing 5% CO2. For determination of cell viability, cells (1 × 10^5 cells/well in 96-well plates) were incubated with 3-(4,5-dimethylthiazol-2-yl)-2,5-diphenyltetrazolium bromide (MTT) at a final concentration of 0.5 mg/mL for 3 h, and the formazan formed was dissolved in acidic 2-propanol. The optical density was measured at 540 nm with a microplate reader (BioRad, Hercules, CA, USA). The optical density of the formazan formed in control (untreated) cells was considered to represent 100% viability.

[2] = tested on: COX-2; assay: Western blot of COX-2 protein expression in LPS-stimulated RAW264.7 macrophages; type: cell-based; details: pre-treated 3 h, LPS 24 h
Description: Therefore, we further tested whether inhibitory effects of 8 against NO and PGE2 productions are correlated with the protein expression of pro-inflammatory enzymes (i.e., iNOS and COX-2, respectively), which are known to catalyze the production of NO and PGEs in LPS-stimulated cells. […] Upon the stimulation by LPS, macrophages can also trigger the production of pro-inflammatory cytokines such as TNF-α, and ILs. The overproduction of these cytokines contributes to the pathogenesis of inflammatory diseases. Thus, we further evaluated the effects of 8 on the mRNA expression of pro-inflammatory cytokines in the LPS-induced cells. The cells were pre-treated with indicated concentration for 3 h, followed by LPS stimulation (1 μg/mL) for 6 h. The mRNA expression of pro-inflammatory cytokines was determined by RT-qPCR.
Figure 2 Effects of 8 on protein expression levels of iNOS and COX-2 (a), and mRNA expression levels of IL-1β (Il1b) (b), IL-6 (Il6) (c), and TNF-α (Tnf) (d) in RAW264.7 macrophages. The cells were pre-treated for 3 h with the indicated concentrations of 8 and stimulated for 24 h (a), and 6 h (b–d) with LPS (1 μg/mL). The measurement of western blot analysis and RNA quantification for Il1b, Il6, and Tnf expression were performed as described in the Materials and Methods. […]
The proteins of iNOS, COX-2, NF-κB, and MAPKs were measured by Western blot analysis. […]

[3] = tested on: IL-1β (Il1b); assay: RT-qPCR of IL-1β mRNA in LPS-stimulated RAW264.7 macrophages; type: cell-based; details: pre-treated 3 h, LPS (1 μg/mL) 6 h
[4] = tested on: IL-6 (Il6); assay: RT-qPCR of IL-6 mRNA in LPS-stimulated RAW264.7 macrophages; type: cell-based; details: pre-treated 3 h, LPS (1 μg/mL) 6 h
[5] = tested on: TNF-α (Tnf); assay: RT-qPCR of TNF-α mRNA in LPS-stimulated RAW264.7 macrophages; type: cell-based; details: pre-treated 3 h, LPS (1 μg/mL) 6 h
[6] = tested on: NF-κB (p50 and p65); assay: Western blot of nuclear NF-κB (p50 and p65) in LPS-treated RAW264.7 macrophages; type: cell-based; details: pre-treated 3 h, LPS (1 μg/mL) 1 h
Method: (§1) Figure 3 Effects of 8 on NF-κB activation (nuclear-p50 and p65) (a), IκBα phosphorylation and degradation (b), and the DNA binding activity of NF-κB (c) in LPS-treated RAW264.7 macrophages. Cells were pre-treated with the indicated concentrations of 8 for 3 h and stimulated with LPS (1 μg/mL) for 1 h. Western blot analysis (IκBα and p-IκBα in the cytoplasm and NF-κB in the nucleus) was performed as described in the Materials and Methods. Representative blots from three independent experiments are shown. A commercially-available NF-κB ELISA kit (Active Motif) was used to test the nuclear extracts and determine the degree of NF-κB binding. The data shown represent the mean values of three independent experiments. * p < 0.05 compared with the group treated with LPS.
(§2) The proteins of iNOS, COX-2, NF-κB, and MAPKs were measured by Western blot analysis. The details of procedures for Western blot analysis were described previously.
(§3) The proteins of nuclear NF-κB (p50 and p65) and cytosolic IκBα (p-IκBα and IκBα) were obtained by using cytosolic and nuclear fractions. The details of this procedure have been described previously.

[7] = tested on: IκB-α; assay: Western blot of cytosolic IκBα phosphorylation and degradation in LPS-treated RAW264.7 macrophages; type: cell-based; details: pre-treated 3 h, LPS (1 μg/mL) 1 h
Method: as §1, §2, §3

[8] = tested on: NF-κB; assay: DNA binding activity of NF-κB in nuclear extracts (TransAM ELISA kit); type: cell-based; details: pre-treated 3 h, LPS (1 μg/mL) 1 h
Method: as §1
TransAM kit (Active Motif, Carlsbad, CA, USA) was used to estimate the DNA-binding activity of NF-κB in the nuclear extract according to the manufacturer’s instructions as described previously.

[9] = tested on: p38; assay: Western blot of p38 phosphorylation in LPS-treated RAW264.7 macrophages; type: cell-based; details: pre-treated 3 h, LPS (1 μg/mL) 30 min
Method: (§4) Figure 4 Effects of 8 on p38 (a), JNK (b), and ERK (c) phosphorylation in RAW264.7 macrophages. Cells were pre-treated with the indicated concentrations of 8 for 3 h and stimulated for 30 min with LPS (1 μg/mL). Cell extracts were subjected to Western blotting with antibodies specific for phosphorylated-p38 (p-p38), phosphorylated JNK (p-JNK), or phosphorylated ERK1/2 (p-ERK). Membranes were stripped and re-probed to measure the total abundance of each MAPK as a control measurement. Representative blots from three independent experiments are shown.
as §2

[10] = tested on: c-Jun N-terminal kinase (JNK); assay: Western blot of JNK phosphorylation in LPS-treated RAW264.7 macrophages; type: cell-based; details: pre-treated 3 h, LPS (1 μg/mL) 30 min
Method: as §4, §2

[11] = tested on: extracellular signal-regulated kinase (ERK); assay: Western blot of ERK phosphorylation in LPS-treated RAW264.7 macrophages; type: cell-based; details: pre-treated 3 h, LPS (1 μg/mL) 30 min
Method: as §4, §2

[12] = tested on: p97; design: method as in PMID 27223265; details: interfering with its ATPase activity; cited from earlier work

C[C@H]1CCC/C=C/C(=O)c2c(O)cc(O)cc2CC(=O)O1 [Compound 8, (10E,15S)-10,11-dehydrocurvularin]
Cytotoxicity (the maximum concentration not affecting cell viability) [1]: 20 µM | COX-2 protein expression [2]: attenuation of the excessive protein expression of iNOS and COX-2 in a dose-dependent manner | mRNA expression of IL-1β [3]: markedly suppressed the mRNA expression of IL-1β, IL-6, and TNF-α in a dose-dependent manner | mRNA expression of IL-6 [4]: markedly suppressed the mRNA expression of IL-1β, IL-6, and TNF-α in a dose-dependent manner | mRNA expression of TNF-α [5]: markedly suppressed the mRNA expression of IL-1β, IL-6, and TNF-α in a dose-dependent manner | nuclear translocation of p50 and p65 [6]: clearly suppressed the nuclear translocation of p50 and p65 in a dose-dependent manner | degradation of IκB-α [7]: blocked the degradation of IκB-α in a concentration-dependent manner | phosphorylation of IκB-α [7]: attenuated this phosphorylation of IκB-α | LPS-induced DNA binding activity of NF-κB [8]: declined | LPS-induced phosphorylation of p38 [9]: did not suppress these phosphorylations | LPS-induced phosphorylation of JNK [10]: did not suppress these phosphorylations | LPS-induced phosphorylation of ERK [11]: did not suppress these phosphorylations | inhibition of p97 [12]: covalent inhibitor of p97
